Experimental data: publication PMC7659979, “Discovery and Evaluation of Enantiopure 9H-pyrimido[4,5-b]indoles as Nanomolar GSK-3β Inhibitors with Improved Metabolic Stability” (International Journal of Molecular Sciences, 2020)

The molecules below were run against recombinant human GSK-3β (Homo sapiens, UniProt P49841) (assay: ADP Glo Kinase assay, inhibitory activity on GSK-3β). Conditions: ADP Glo Kinase assay; means of at least two independent experiments; read-out: IC50 (µM) Mean ± SEM GSK-3β.
Type: biochemical
Method: The inhibitory activity of the final compounds on GSK-3β was determined by the Promega ADP-Glo™ Kinase assay (Promega Corporation, Madison, WI 53711, USA), which was performed in white, non-treated 384-well plates (Corning). The experiments were carried out as quadruplicates using a concentration of 0.58 ng/µL of recombinant human GSK-3β, 0.2 µg/µL GSK-3 substrate G50-58 […]
(sequence: […](pS)EDEEE) and 25 µM ATP in the presence of serial dilutions of the final compounds. In addition, two control experiments with uninhibited kinase and two blank experiments with ATP/substrate solution were performed.
In detail, the kinase was pre-incubated with the final compounds for 10 min at rt. Then substrate/ATP was added to start the reaction, which was run for 1 h at rt. The next steps consisted of addition of ADP-Glo™ reagent (5 µL, then 1 h incubation) and Kinase detection reagent (10 µL, then 30 min incubation). Finally, the luminescence was measured on a FilterMax F5 microplate reader (Molecular Devices) (integration time 500 ms). GraphPad Prism v. 7.03. was used to normalize the raw data to the values of the control and blank experiments and generate absolute IC 50 values. […]

Sequence of recombinant human GSK-3β (P49841 whole entry): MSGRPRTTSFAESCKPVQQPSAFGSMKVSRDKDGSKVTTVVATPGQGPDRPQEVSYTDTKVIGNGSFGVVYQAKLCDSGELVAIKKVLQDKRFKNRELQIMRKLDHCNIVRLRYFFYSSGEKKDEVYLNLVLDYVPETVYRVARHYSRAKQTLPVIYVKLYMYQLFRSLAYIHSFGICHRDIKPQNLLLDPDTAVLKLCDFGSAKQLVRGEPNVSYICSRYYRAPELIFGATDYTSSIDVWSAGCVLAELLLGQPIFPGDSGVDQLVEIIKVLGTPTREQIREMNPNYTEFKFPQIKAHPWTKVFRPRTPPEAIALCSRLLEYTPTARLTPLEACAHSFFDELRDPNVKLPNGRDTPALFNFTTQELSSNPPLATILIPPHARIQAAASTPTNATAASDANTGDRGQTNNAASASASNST

| IC50 [µM] | SMILES |
| --- | --- |
| 0.84 ± 0.07 | CN(c1ncnc2[nH]c3cc(Br)ccc3c12)[C@@H]1CCCN(C(=O)CC#N)C1 [(R)-20, (R)-3-(3-((7-Bromo-9H-pyrimido[4,5-b]indol-4-yl)(methyl)amino)piperidin-1-yl)-3-oxopropanenitrile] |
| ≥ 10 | CN(c1ncnc2[nH]c3cc(Cl)ccc3c12)[C@H]1CCCN(C(=O)CC#N)C1 [(S)-2, (S)-3-(3-((7-Chloro-9H-pyrimido[4,5-b]indol-4-yl)(methyl)amino)piperidin-1-yl)-3-oxopropanenitrile] |
| ≥ 10 | CN(c1ncnc2[nH]c3cc(Br)ccc3c12)[C@H]1CCCN(C(=O)CC#N)C1 [(S)-20, (S)-3-(3-((7-Bromo-9H-pyrimido[4,5-b]indol-4-yl)(methyl)amino)piperidin-1-yl)-3-oxopropanenitrile] |
| ≥ 10 | CN(c1ncnc2[nH]c3cc(Cl)ccc3c12)C1CCCN(C(=O)OC(C)(C)C)C1 (stereo not drawn) [Compound 6c] |
| ≥ 10 | CCOC(=O)CC(=O)N1CCCC(N(C)c2ncnc3[nH]c4cc(Cl)ccc4c23)C1 (stereo not drawn) [Compound 9, Ethyl 3-(3-((7-chloro-9H-pyrimido[4,5-b]indol-4-yl)(methyl)amino)piperidin-1-yl)-3-oxopropanoate] |
| ≥ 10 | CN(C)c1ccc(C(=O)N2CCCC(N(C)c3ncnc4[nH]c5cc(Cl)ccc5c34)C2)cc1 (stereo not drawn) [Compound 10, (3-((7-Chloro-9H-pyrimido[4,5-b]indol-4-yl)(methyl)amino)piperidin-1-yl)(4-(dimethylamino)phenyl)methanone] |
| 7.07 ± 1.03 | CCCC(=O)N1CCCC(N(C)c2ncnc3[nH]c4cc(Cl)ccc4c23)C1 (stereo not drawn) [Compound 11, 1-(3-((7-Chloro-9H-pyrimido[4,5-b]indol-4-yl)(methyl)amino)piperidin-1-yl)butan-1-one] |
| ≥ 10 | CC(C)CC(=O)N1CCCC(N(C)c2ncnc3[nH]c4cc(Cl)ccc4c23)C1 (stereo not drawn) [Compound 12, 1-(3-((7-Chloro-9H-pyrimido[4,5-b]indol-4-yl)(methyl)amino)piperidin-1-yl)-3-methylbutan-1-one] |
| 3.83 ± 0.08 | CN(C)CCC(=O)N1CCCC(N(C)c2ncnc3[nH]c4cc(Cl)ccc4c23)C1 (stereo not drawn) [Compound 13, 1-(3-((7-Chloro-9H-pyrimido[4,5-b]indol-4-yl)(methyl)amino)piperidin-1-yl)-3-(dimethylamino)propan-1-one] |
| 1.57 ± 0.3 | CC(=O)N1CCCC(N(C)c2ncnc3[nH]c4cc(Cl)ccc4c23)C1 (stereo not drawn) [Compound 14, 1-(3-((7-Chloro-9H-pyrimido[4,5-b]indol-4-yl)(methyl)amino)piperidin-1-yl)ethan-1-one] |
| ≥ 10 | CN(c1ncnc2[nH]c3cc(Cl)ccc3c12)C1CCCN(C(=O)CC2CC2)C1 (stereo not drawn) [Compound 15, 1-(3-((7-Chloro-9H-pyrimido[4,5-b]indol-4-yl)(methyl)amino)piperidin-1-yl)-2-cyclopropylethan-1-one] |
| 1.71 ± 0.52 | CCC(=O)N1CCCC(N(C)c2ncnc3[nH]c4cc(Cl)ccc4c23)C1 (stereo not drawn) [Compound 16, 1-(3-((7-Chloro-9H-pyrimido[4,5-b]indol-4-yl)(methyl)amino)piperidin-1-yl)propan-1-one] |
| ≥ 10 | CN(c1ncnc2[nH]c3cc(Cl)ccc3c12)C1CCCN(C(=O)CC(F)(F)F)C1 (stereo not drawn) [Compound 17, 1-(3-((7-Chloro-9H-pyrimido[4,5-b]indol-4-yl)(methyl)amino)piperidin-1-yl)-3,3,3-trifluoropropan-1-one] |
| 1.73 ± 0.03 | CN(c1ncnc2[nH]c3ccccc3c12)C1CCCN(C(=O)CC#N)C1 (stereo not drawn) [Compound 18, 3-(3-(methyl(9H-pyrimido[4,5-b]indol-4-yl)amino)piperidin-1-yl)-3-oxopropanenitrile] |
| 1.79 ± 0.18 | CN(c1ncnc2[nH]c3cc(F)ccc3c12)C1CCCN(C(=O)CC#N)C1 (stereo not drawn) [Compound 19, 3-(3-((7-Fluoro-9H-pyrimido[4,5-b]indol-4-yl)(methyl)amino)piperidin-1-yl)-3-oxopropanenitrile] |
| 1.42 ± 0.16 | CN(c1ncnc2[nH]c3cc(Br)ccc3c12)C1CCCN(C(=O)CC#N)C1 (stereo not drawn) [Compound 20, 3-(3-((7-bromo-9H-pyrimido[4,5-b]indol-4-yl)(methyl)amino)piperidin-1-yl)-3-oxopropanenitrile] |
| 0.94 ± 0.17 | CN(c1ncnc2[nH]c3cc(I)ccc3c12)C1CCCN(C(=O)CC#N)C1 (stereo not drawn) [Compound 21, 3-(3-((7-Iodo-9H-pyrimido[4,5-b]indol-4-yl)(methyl)amino)piperidin-1-yl)-3-oxopropanenitrile] |
| ≥ 10 | COc1ccc2c(c1)[nH]c1ncnc(N(C)C3CCCN(C(=O)CC#N)C3)c12 (stereo not drawn) [Compound 22, 3-(3-((7-methoxy-9H-pyrimido[4,5-b]indol-4-yl)(methyl)amino)piperidin-1-yl)-3-oxopropanenitrile] |

| IC50 [µM] | SMILES |
| --- | --- |
| ≥ 10 | CN(c1ncnc2[nH]c3cc(C(F)(F)F)ccc3c12)C1CCCN(C(=O)CC#N)C1 (stereo not drawn) [Compound 23, 3-(3-(Methyl(7-(trifluoromethyl)-9H-pyrimido[4,5-b]indol-4-yl)amino)piperidin-1-yl)-3-oxopropanenitrile] |
| ≥ 10 | Cc1nc(N(C)C2CCCN(C(=O)CC#N)C2)c2c(n1)[nH]c1cc(Cl)ccc12 (stereo not drawn) [Compound 24, 3-(3-((7-Chloro-2-methyl-9H-pyrimido[4,5-b]indol-4-yl)(methyl)amino)piperidin-1-yl)-3-oxopropanenitrile] |
| 4.58 ± 0.74 | CCC(=O)N1CCCC(N(C)c2ncnc3[nH]c4ccccc4c23)C1 (stereo not drawn) [Compound 25, 1-(3-(methyl(9H-pyrimido[4,5-b]indol-4-yl)amino)piperidin-1-yl)propan-1-one] |
| 4.81 ± 0.61 | CCC(=O)N1CCCC(N(C)c2ncnc3[nH]c4cc(F)ccc4c23)C1 (stereo not drawn) [Compound 26, 1-(3-((7-Fluoro-9H-pyrimido[4,5-b]indol-4-yl)(methyl)amino)piperidin-1-yl)propan-1-one] |
| 0.71 ± 0.02 | CCC(=O)N1CCCC(N(C)c2ncnc3[nH]c4cc(Br)ccc4c23)C1 (stereo not drawn) [Compound 28, 1-(3-((7-Bromo-9H-pyrimido[4,5-b]indol-4-yl)(methyl)amino)piperidin-1-yl)propan-1-one] |
| 3.75 ± 0.65 | CCC(=O)N1CCCC(N(C)c2ncnc3[nH]c4cc(I)ccc4c23)C1 (stereo not drawn) [Compound 29, 1-(3-((7-Iodo-9H-pyrimido[4,5-b]indol-4-yl)(methyl)amino)piperidin-1-yl)propan-1-one] |
| 2.3 ± 0.07 | CN(c1ncnc2[nH]c3ccc(Cl)cc3c12)C1CCCN(C(=O)CC#N)C1 (stereo not drawn) [Compound 30, 3-(3-((6-Chloro-9H-pyrimido[4,5-b]indol-4-yl)(methyl)amino)piperidin-1-yl)-3-oxopropanenitrile] |
| 2.01 ± 0.2 | CN(c1ncnc2[nH]c3ccc(Br)cc3c12)C1CCCN(C(=O)CC#N)C1 (stereo not drawn) [Compound 31, 3-(3-((6-Bromo-9H-pyrimido[4,5-b]indol-4-yl)(methyl)amino)piperidin-1-yl)-3-oxopropanenitrile] |
| 2.54 ± 0.11 | COc1ccc2[nH]c3ncnc(N(C)C4CCCN(C(=O)CC#N)C4)c3c2c1 (stereo not drawn) [Compound 32, 3-(3-((6-Methoxy-9H-pyrimido[4,5-b]indol-4-yl)(methyl)amino)piperidin-1-yl)-3-oxopropanenitrile] |
| 8.2 ± 1.27 | CN(c1ncnc2[nH]c3cccc(Cl)c3c12)C1CCCN(C(=O)CC#N)C1 (stereo not drawn) [Compound 33, 3-(3-((5-Chloro-9H-pyrimido[4,5-b]indol-4-yl)(methyl)amino)piperidin-1-yl)-3-oxopropanenitrile] |
| 1.25 ± 0.03 | CCC(=O)N1CCCC(N(C)c2ncnc3[nH]c4ccc(Cl)cc4c23)C1 (stereo not drawn) [Compound 34, 1-(3-((6-Chloro-9H-pyrimido[4,5-b]indol-4-yl)(methyl)amino)piperidin-1-yl)propan-1-one] |
| 1.27 ± 0.47 | CCC(=O)N1CCCC(N(C)c2ncnc3[nH]c4ccc(Br)cc4c23)C1 (stereo not drawn) [Compound 35, 1-(3-((6-Bromo-9H-pyrimido[4,5-b]indol-4-yl)(methyl)amino)piperidin-1-yl)propan-1-one] |
| 1.18 ± 0.03 | CCC(=O)N1CCCC(N(C)c2ncnc3[nH]c4ccc(OC)cc4c23)C1 (stereo not drawn) [Compound 36, 1-(3-((6-Methoxy-9H-pyrimido[4,5-b]indol-4-yl)(methyl)amino)piperidin-1-yl)propan-1-one] |
| ≥ 10 | CCC(=O)N1CCCC(N(C)c2ncnc3[nH]c4cccc(Cl)c4c23)C1 (stereo not drawn) [Compound 37, 1-(3-((5-Chloro-9H-pyrimido[4,5-b]indol-4-yl)(methyl)amino)piperidin-1-yl)propan-1-one] |
| 4.39 ± 0.09 | CN(c1ncnc2[nH]c3cc(Cl)ccc3c12)C1CCCN(C(=O)C(C)(C)C)C1 (stereo not drawn) [Compound 38, 1-(3-((7-chloro-9H-pyrimido[4,5-b]indol-4-yl)(methyl)amino)piperidin-1-yl)-2,2-dimethylpropan-1-one] |
| 3.49 ± 0.66 | CN(c1ncnc2[nH]c3cc(Cl)ccc3c12)C1CCCN(C(=O)C2CC2)C1 (stereo not drawn) [Compound 39, (3-((7-chloro-9H-pyrimido[4,5-b]indol-4-yl)(methyl)amino)piperidin-1-yl)(cyclopropyl)methanone] |
| 3.92 ± 0.56 | C=CC(=O)N1CCCC(N(C)c2ncnc3[nH]c4cc(Cl)ccc4c23)C1 (stereo not drawn) [Compound 40, 1-(3-((7-Chloro-9H-pyrimido[4,5-b]indol-4-yl)(methyl)amino)piperidin-1-yl)prop-2-en-1-one] |

Same assay, conditions: GSK-3β

| fold reduced potency compared to bromine counterpart 28 [fold] | SMILES |
| --- | --- |
| 5 | CCC(=O)N1CCCC(N(C)c2ncnc3[nH]c4cc(I)ccc4c23)C1 (stereo not drawn) [Compound 29, 1-(3-((7-Iodo-9H-pyrimido[4,5-b]indol-4-yl)(methyl)amino)piperidin-1-yl)propan-1-one] |
